Tests used:
[1] = tested on: 3T3 fibroblasts; assay: in vitro cytotoxicity by MTT assay; format: cell-based
[2] = tested on: human mesenchymal stem cells (hMSC); assay: DTT / digestion solution cytotoxicity to hMSC; format: cell-based; conditions: short exposure (<30 minutes), high concentration of DTT (50 mM)
Description: Also, the DTT cytotoxicity to human mesenchymal stem cells (hMSC) was studied, as depicted at FIG. 3C. […], hMSC presented low viability—80% to 85%—at the high concentration of DTT (50 mM).

[3] = tested on: hMSCs; assay: cell viability after full digestion with digestion agents; conditions: 0.015 M sodium citrate solutions
Description: The cell viability was calculated after full digestion due to the concern of potential cytotoxicity from the digestion agents.

Row | SMILES | cytotoxicity (MTT) ([1]; 50 mM DTT solution) | cytotoxicity (MTT) ([1]; low concentration 1 mM, compared to DPBS) | cytotoxicity (MTT) ([1]; working concentration 10 mM, compared to DPBS) | hMSC tolerance [2] | cytotoxicity to hMSCs [3]
1 | O[C@H](CS)[C@H](O)CS (racemic) [DTT, dithiothreitol] | significant cytotoxicity | no significant cytotoxicity | no significant cytotoxicity | tolerant | –
2 | O=C([O-])CC(O)(CC(=O)[O-])C(=O)[O-].[Na+].[Na+].[Na+] [sodium citrate] | – | – | – | – | certain level of cytotoxicity
